Results published in patent US8039453B2, “Vinca derivatives” (priority 2006, dated 2011).
Read-outs that look alike come from different tables or passages of the source.

Tested on: HeLa S-3 human cervical carcinoma cell line
Experiment: HeLa GI50 determination (SRB growth inhibition)
Assay type: cell-based
Details: HeLa S3, 48 h, read-out: HeLa Cells GI50
Description: A. HeLa GI50 Determinations
Growth inhibition (GI50) values were measured on the human cervical carcinoma cell line, HeLa S-3, which were selected for growth on plastic. The HeLa cell assay was based on the description of Skehan et al., J. Natl. Cancer Inst., 82:1107-12 (1990), which is hereby incorporated by reference in its entirety. HeLa cells were plated at 2×10^4 cells/well in 96 well plates. One day later, a control plate was fixed by the addition of TCA to 5%. After five rinses with tap water, the plate was air-dried and stored at 4° C. Test compounds were added to the remaining plates at 10-fold dilutions. Two days later, all plates were fixed as described above. Cells were then stained by the addition of 100 μL per well of 0.4% sulforhodamine B (SRB) in 1% acetic acid for 30 min at 4° C. Wells were then quickly rinsed 5× with 1% acetic acid and allowed to air dry. The SRB was then solubilized by the addition of 100 μL per well of unbuffered 10 mM Tris base. Dye was quantified by measuring absorbance at 490 nm on a Molecular Devices microplate reader. Growth inhibition was calculated according to the following equation: GI=100×(T−T0)/(C−T0), where the optical density (OD) of the test well after 2 days of treatment was T, the OD of the wells in the control plate on day 0 was T0 and C was the OD of untreated wells. Plots of percent growth inhibition versus inhibitor concentration were used to determine the GI50.

[1] = HeLa S-3 cells, 2 days of treatment, sulforhodamine B staining

Row | SMILES | GI50 [1] [nM] | GI50 [nM]
1 | CC[C@]12C=CCN3CC[C@@]4(c5cc([C@@]6(C(=O)OC)C[C@H]7CC(C(C)(F)F)CN(CCc8c6[nH]c6ccc(SC)cc86)C7)c(OC)cc5N(C)[C@H]4[C@@](O)(C(=O)OC)[C@@H]1OC(C)=O)[C@@H]32 (stereo partly drawn) [Example 12, 12′-(Methylsulfanyl)-4′-deoxy-20′,20′-diflurovincaleukoblastine] | 93 | 
2 | CCc1ccc2[nH]c3c(c2c1)CCN1CC(C(C)(F)F)C[C@@H](C1)C[C@]3(C(=O)OC)c1cc2c(cc1OC)N(C)[C@H]1[C@@](O)(C(=O)OC)[C@H](OC(C)=O)[C@]3(CC)C=CCN4CC[C@]21[C@@H]43 (stereo partly drawn) [Example 3, 12′-Ethyl-4′-deoxy-20′,20′-diflurovincaleukoblastine] | > 1000 | 
3 | CC[C@]12C=CCN3CC[C@@]4(c5cc([C@@]6(C(=O)OC)C[C@H]7CC(C(C)(F)F)CN(CCc8c6[nH]c6ccc(-c9ccccc9)cc86)C7)c(OC)cc5N(C)[C@H]4[C@@](O)(C(=O)OC)[C@@H]1OC(C)=O)[C@@H]32 (stereo partly drawn) [Example 6, 12′-Phenyl-4′-deoxy-20′,20′-diflurovincaleukoblastine] |  | 23100
